Values of other authors, collected in PubChem BioAssay AID1259409 (Chemical Carcinogenesis Research Information System (CCRIS), 2018).

Tested on: rodent chemically induced tumor inhibition, incidence and multiplicity
Experiment: CCRIS tumor inhibitor studies

NCCCC(N)(C(=O)O)C(F)F (centres undefined)
tumour outcome (control, treated, inhibition, significance) (Carcinogen: N-ETHYL-N-NITROSOUREA, 759-73-9, Dose [Inhibitor]: 0, 500 MG/KG DIET FOR DURATION OF STUDY BEGINNING POST CARCINOGEN DOSE (STUDY DURATION: 35 WK), Route [Inhibitor]: ORAL, Species: MOUSE, Strain/Sex: PIM/MALE, Target Tissue: Type of Lesion: LYMPHATIC SYSTEM: LYMPHOMA, Dose [Carcinogen]: 50 MG/KG BW ONCE, Promoter: NONE USED): 21/40 (53%), 9/28 (32%), 40%, not significant | tumour outcome (control, treated, inhibition, significance) (Carcinogen: N-ETHYL-N-NITROSOUREA, 759-73-9, Dose [Inhibitor]: 0, 1000 MG/KG DIET FOR DURATION OF STUDY BEGINNING POST CARCINOGEN DOSE (STUDY DURATION: 35 WK), Route [Inhibitor]: ORAL, Species: MOUSE, Strain/Sex: PIM/MALE, Target Tissue: Type of Lesion: LYMPHATIC SYSTEM: LYMPHOMA, Dose [Carcinogen]: 50 MG/KG BW ONCE, Promoter: NONE USED): 21/40 (53%), 16/40 (40%), 26%, not significant | tumour outcome (control, treated, inhibition, significance) (Carcinogen: N-METHYL-N'-NITRO-N-NITROSOGUANIDINE, 70-25-7, Dose [Inhibitor]: 0, 0.5% IN DRINKING WATER ADMINISTERED CONCURRENTLY WITH CARCINOGEN FOR 35 WK (STUDY DURATION: 85 WK), Route [Inhibitor]: ORAL, Species: RAT, Strain/Sex: WISTAR/MALE, Target Tissue: Type of Lesion: DUODENUM: TUMOR, Dose [Carcinogen]: 2.5 MG IN DRINKING WATER FOR 35 WK, Promoter: NONE USED): 4/22 (18%), 9/25 (36%), -100%, not significant | tumour outcome (control, treated, inhibition, significance) (Carcinogen: N-METHYL-N'-NITRO-N-NITROSOGUANIDINE, 70-25-7, Dose [Inhibitor]: 0, 0.5% IN DRINKING WATER ADMINISTERED CONCURRENTLY WITH CARCINOGEN FOR 35 WK (STUDY DURATION: 85 WK), Route [Inhibitor]: ORAL, Species: RAT, Strain/Sex: WISTAR/MALE, Target Tissue: Type of Lesion: STOMACH: ADENOCARCINOMA, Dose [Carcinogen]: 2.5 MG IN DRINKING WATER FOR 35 WK, Promoter: NONE USED): 12/22 (55%), 3/25 (12%), 78%, p<0.005 | tumour outcome (control, treated, inhibition, significance) (Carcinogen: N-METHYL-N'-NITRO-N-NITROSOGUANIDINE, 70-25-7, Dose [Inhibitor]: 0, 0.5% IN DRINKING WATER ADMINISTERED CONCURRENTLY WITH CARCINOGEN FOR 35 WK (STUDY DURATION: 85 WK), Route [Inhibitor]: ORAL, Species: RAT, Strain/Sex: WISTAR/MALE, Target Tissue: Type of Lesion: STOMACH: ADENOMA, Dose [Carcinogen]: 2.5 MG IN DRINKING WATER FOR 35 WK, Promoter: NONE USED): 5/22 (23%), 4/25 (16%), 30%, not significant | tumour outcome (control, treated, inhibition, significance) (Carcinogen: N-METHYL-N'-NITRO-N-NITROSOGUANIDINE, 70-25-7, Dose [Inhibitor]: 0, 0.5% IN DRINKING WATER ADMINISTERED CONCURRENTLY WITH CARCINOGEN FOR 35 WK (STUDY DURATION: 85 WK), Route [Inhibitor]: ORAL, Species: RAT, Strain/Sex: WISTAR/MALE, Target Tissue: Type of Lesion: STOMACH: SARCOMA, Dose [Carcinogen]: 2.5 MG IN DRINKING WATER FOR 35 WK, Promoter: NONE USED): 2/22 (9%), 0/25 (0%), 100%, not significant | tumour outcome (control, treated, inhibition, significance) (Carcinogen: N-METHYL-N'-NITRO-N-NITROSOGUANIDINE, 70-25-7, Dose [Inhibitor]: 0, 1% IN DRINKING WATER ADMINISTERED CONCURRENTLY WITH CARCINOGEN FOR 35 WK (STUDY DURATION: 85 WK), Route [Inhibitor]: ORAL, Species: RAT, Strain/Sex: WISTAR/MALE, Target Tissue: Type of Lesion: DUODENUM: TUMOR, Dose [Carcinogen]: 2.5 MG IN DRINKING WATER FOR 35 WK, Promoter: NONE USED): 4/22 (18%), 9/25 (36%), -100%, not significant | tumour outcome (control, treated, inhibition, significance) (Carcinogen: N-METHYL-N'-NITRO-N-NITROSOGUANIDINE, 70-25-7, Dose [Inhibitor]: 0, 1% IN DRINKING WATER ADMINISTERED CONCURRENTLY WITH CARCINOGEN FOR 35 WK (STUDY DURATION: 85 WK), Route [Inhibitor]: ORAL, Species: RAT, Strain/Sex: WISTAR/MALE, Target Tissue: Type of Lesion: STOMACH: ADENOCARCINOMA, Dose [Carcinogen]: 2.5 MG IN DRINKING WATER FOR 35 WK, Promoter: NONE USED): 12/22 (55%), 5/25 (20%), 64%, p<0.05 | tumour outcome (control, treated, inhibition, significance) (Carcinogen: N-METHYL-N'-NITRO-N-NITROSOGUANIDINE, 70-25-7, Dose [Inhibitor]: 0, 1% IN DRINKING WATER ADMINISTERED CONCURRENTLY WITH CARCINOGEN FOR 35 WK (STUDY DURATION: 85 WK), Route [Inhibitor]: ORAL, Species: RAT, Strain/Sex: WISTAR/MALE, Target Tissue: Type of Lesion: STOMACH: ADENOMA, Dose [Carcinogen]: 2.5 MG IN DRINKING WATER FOR 35 WK, Promoter: NONE USED): 5/22 (23%), 3/25 (12%), 48%, not significant | tumour outcome (control, treated, inhibition, significance) (Carcinogen: N-METHYL-N'-NITRO-N-NITROSOGUANIDINE, 70-25-7, Dose [Inhibitor]: 0, 1% IN DRINKING WATER ADMINISTERED CONCURRENTLY WITH CARCINOGEN FOR 35 WK (STUDY DURATION: 85 WK), Route [Inhibitor]: ORAL, Species: RAT, Strain/Sex: WISTAR/MALE, Target Tissue: Type of Lesion: STOMACH: SARCOMA, Dose [Carcinogen]: 2.5 MG IN DRINKING WATER FOR 35 WK, Promoter: NONE USED): 2/22 (9%), 3/25 (12%), -33%, not significant | tumour outcome (control, treated, inhibition, significance) (Carcinogen: N-METHYL-N-BENZYLNITROSAMINE, 937-40-6, Dose [Inhibitor]: 0, 1% IN DEIONIZED WATER WITH ZINC-DEFICIENT DIET FOR 15 WK STARTING 1 HR POST CARCINOGEN TREATMENT (STUDY DURATION: 20, Route [Inhibitor]: ORAL, Species: RAT, Strain/Sex: SPRAGUE-DAWLEY/MALE, Target Tissue: Type of Lesion: ESOPHAGUS: TUMOR, Dose [Carcinogen]: 2 MG/KG BW ONCE ADMINISTERED AFTER 5 WK OF ZINC-DEFICIENT DIET TREATMENT): 89% (8/9), 10% (2/20), 89%, p<0.0001 | tumour outcome (control, treated, inhibition, significance) (Carcinogen: N-METHYL-N-NITROSOUREA, 684-93-5, Dose [Inhibitor]: 0, 0.5 IN 2% NORMAL URINE INTO HETEROTOPICALLY TRANSPLANTED BLADDER 2/WK FOR 22 WK BEGINNING 1 WK POST CARCINOGEN (STUDY, Route [Inhibitor]: INJECTION, Species: RAT, Strain/Sex: F344/MALE, Target Tissue: Type of Lesion: BLADDER: TRANSITIONAL CELL CARCINOMA, Dose [Carcinogen]: 0.25 MG IN 0.9% SALINE 1/WK FOR 3 WK INTO BLADDER 4 WK AFTER HETEROTOPIC TRANSPLANT INTO GLUTEAL MUSCLE): 31/38 (82%), 5/37 (16%), 80%, p<0.001 | tumour outcome (control, treated, inhibition, significance) (Carcinogen: N-METHYL-N-NITROSOUREA, 684-93-5, Dose [Inhibitor]: 0, 0.5 IN 2% NORMAL URINE INTO HETEROTOPICALLY TRANSPLANTED BLADDER 2/WK FOR 29 WK BEGINNING 1 WK POST CARCINOGEN (STUDY, Route [Inhibitor]: INJECTION, Species: RAT, Strain/Sex: F344/MALE, Target Tissue: Type of Lesion: BLADDER: TRANSITIONAL CELL CARCINOMA, Dose [Carcinogen]: 0.25 MG IN 0.9% SALINE ONCE INTO BLADDER 4 WK AFTER HETEROTOPIC TRANSPLANT INTO GLUTEAL MUSCLE): 15/35 (43%), 3/34 (9%), 79%, p<0.005 | tumour outcome (control, treated, inhibition, significance) (Carcinogen: N-METHYL-N-NITROSOUREA, 684-93-5, Dose [Inhibitor]: 0.5 ML OF 2% AGENT IN 0.9% SALINE SOLUTION TWICE IN WK 1 THEN ONCE 2 HR POST CARCINOGEN DOSE THEN TWICE IN WEEK 2 (STUDY, Route [Inhibitor]: INTRAVESICAL, Species: RAT, Strain/Sex: F344/MALE, Target Tissue: Type of Lesion: BLADDER: CARCINOMA, Dose [Carcinogen]: 0.25 MG IN 0.5 ML OF 0.9% SALINE SOLUTION ONCE, Promoter: URINE): 25/36 (69%), 25/37 (68%), 1%, not calculated
